Read-outs that look alike come from different tables or passages of the source. One block for each molecule: values may come before it.
Experiments:
[1] = test system: human brain slices from the frontal and/or temporal lobes of AD patients; assay: Autoradiography with 18F-labeled compounds using human brain tissue; format: binding; details: FIG. 14; for competition with amyloid binding compound: block with an amyloid binding compound; for competition with corresponding cold compound: blocking compound 10 μM
Experimental: Autoradiography Using Human Brain Tissue
(§1) 18 micron thick frozen human brain slices and 6 micron thick human FFPE brain slices from the frontal and/or temporal lobes of AD patients were examined via autoradiography. Brain sections were equilibrated for at least 1 h in 1×PBS solution prior to use in the experiment. Each brain section was covered with a solution of the F-18 labeled tracer (200 Bq/μl, 500 μl) in 1×PBS. For blocking experiments with the corresponding 19F-labeled compound, an excess of the blocking compound was mixed with the 18F-compound to yield an end concentration of 10 μM. The brain sections were allowed to incubate with the tracer solution at room temperature for 1 h, drained afterwards and placed in a slide holder. The slides were then washed sequentially with 1×PBS for 1 min; 70% EtOH in 1×PBS for 2 min; 30% EtOH in 1×PBS for 2 min; and 1×PBS for 1 min. The slides were allowed to air-dry before being placed on Fuji imaging plates for overnight exposure. The imaging plates were scanned and the signal was measured using Fuji software to produce an autoradiographic image of the brain section. Representative examples of autoradiography studies with ^18F-178, ^18F-189, ^18F-161, ^18F-95, ^18F-168, ^18F-146, ^18F-156, ^18F-159 are shown in FIGS. 9 to 12.
The specificity of the signals was confirmed by blocking with an excess of the corresponding non-radioactive compounds.

[2] = test system: tau tangles/Aβ plaques on AD brain sections; assay: Assay 1: direct staining of human Alzheimer's disease brain sections (fluorescence); format: binding; set-up: key to Direct staining of tau tangles/Aβ plaques on AD brain sections at 100 μM / Direct staining of tau tangles on AD brain sections at 100 μM / Direct staining of Aβ plaques on AD brain sections at 100 μM / Direct staining of tau tangles on AD brain sections (footnote a: at 250 μM): − (No); +++ (strong); ++ (good); + (weak); details: 100 μM compound
Summary of the method: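 Frozen […] amygdala sections from Braak V-VI AD donors, PFA-fixed, incubated with compound at 100 μM in 50% ethanol for 20 min at room temperature in the dark. Sudan Black quenched autofluorescence, then staining detected by fluorescence microscopy.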

[3] = test system: Aβ plaques on AD brain section; assay: Assay 1: displacement of Compound B on human AD brain sections (fluorescence); format: binding
Experimental: Direct Binding of Compounds of this Invention to Human Alzheimer's Disease Brain Sections and/or Displacement of RefA and Compound B Frozen sections with a thickness of […] from the amygdala of donors diagnosed with Braak stage V-VI Alzheimer's Disease (Braak, H.; Braak, E. Acta Neuropathol., 1991, 82, 239-259), were purchased from a commercial provider (Tissue Solutions) and kept at -80° C. until use. Displacement of RefA and Compound B Brain sections were mainly treated as described above. Test compounds were, however, incubated on the section at 250 μM in 50% ethanol for 20 min at room temperature, and then directly incubated with the fluorescent reference compounds RefA and Compound B, each at 1 μM in 50% ethanol for 20 min at room temperature. RefA and Compound B stainings were visualized using the 470 nm and 365 nm excitation filters, respectively. Images were acquired, and tangles and plaques quantified using the NIS-Element software. Only those compounds not directly staining tangles or plaques at the same wavelengths as RefA and Compound B were tested in the displacement assay. Structure of Compound B (prepared by a similar procedure described for […] in WO2010/011964): […]

[4] = target: Tau enriched paired helical filaments (PHF) from human Alzheimer's disease (AD) brains (Homo sapiens, UniProt P10636); assay: Assay 3: backscattering interferometry, dissociation constants (Kd); format: binding
Sequence of Tau enriched paired helical filaments (PHF) from human Alzheimer's disease (AD) brains (P10636 623-708 limits assumed): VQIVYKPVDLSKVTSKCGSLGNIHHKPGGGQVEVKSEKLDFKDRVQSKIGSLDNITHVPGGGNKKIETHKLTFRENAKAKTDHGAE
Text: Assay 3 (Backscattering Interferometry):
Determination of Dissociation Constants (Kd) of Compounds of this Invention
Enrichment of Paired Helical Filaments (PHF's) from Human Alzheimer's Disease Brains
For backscattering interferometry, Tau enriched paired helical filaments (PHF) from human Alzheimer's disease (AD) brains were used as a target. Due to the limited availability of tissues, to determine dissociation constants (Kd) of compounds of this invention to the target, two different batches of enriched PHF were used. These batches are identified as batch 6 and 7 and were prepared as follows.
PHF batch number 6 was prepared starting from 25 g frontal cortical tissue from post-mortem brains of 25 Alzheimer's disease (AD) patients which were obtained from the London Tissue Bank. The mean age at death for the AD patients was 76 years (48% females). Brain samples were characterized for Braak disease stage (Braak and Braak, 1991), with most donors displaying a stage VI. The postmortem interval between death and brain dissection was between 6 and 65 h. Human brain homogenates were prepared by SB Drug Discovery (Glasgow, Scotland, UK) from the post-mortem cortical tissue of the 25 patients). Each tissue (1 g) was homogenized with a Dounce glass homogenizer in 1.5 mL 100 mM 2-(N-morpholino) ethane-sulfonic acid (MES) pH 6.8, 0.75 M NaCl, 1 mM EGTA, 0.5 mM MgSO4, 2 mM DTT containing protease inhibitors (Complete; Roche 11697498001). For each sample, two aliquots containing 0.5 g brain homogenates in 0.75 mL were shipped to AC Immune SA on dry ice and stored at −80° C. For the enrichment of PHF, 1 aliquot per donor corresponding to total 12.5 g of brain tissue were thawed on ice and then incubated at 4° C. for 20 min to depolymerize any residual microtubules. All samples were then pooled and transferred to three polycarbonate centrifuge bottles (16×76 mm; Beckman 355603).
PHF batch number 7 was prepared starting from 32 g of parietal cortex tissue from post-mortem brain of one Alzheimer's disease (AD) patient was obtained from an external provider (Tissue Solution). The patient was a person who died for end stage AD. The brain sample was collected 5 h post-mortem and characterized for Braak disease stage (Braak and Braak, 1991) as stage VI. The method used for the PHF enrichment was modified from published procedures (Jicha et al., 1997; Rostagno and Ghiso, 2009). Around 16 g of the AD human brain was thawed on ice and homogenized with 50 ml of homogenization buffer [0.75 M NaCl in RAB buffer (100 mM 2-(N-morpholino) ethanesulfonic acid (MES), 1 mM EGTA, 0.5 mM MgSO4, 2 mM DTT, pH 6.8) supplemented with protease inhibitors (Complete; Roche 11697498001)] in a glass Dounce homogenizer. The homogenate was then incubated at 4° C. for 20 min to let depolymerize any residual microtubules, before being transferred into polycarbonate centrifuge bottles (16×76 mm; Beckman 355603). For both purifications, brain homogenates were then centrifuged at 11,000 g (12,700 RPM) in an ultracentrifuge (Beckman, XL100K) for 20 min at 4° C. using the pre-cooled 70.1 rotor (Beckman, 342184). Pellets were kept on ice. Supernatants were pooled into polycarbonate bottles and centrifuged again at 100,000 g (38,000 RPM) for 1 h at 4° C. in the 70.1 Ti rotor to isolate PHF-rich pellets, whereas soluble Tau remained in the supernatants. The pellets from the first and second centrifugations were resuspended in 120 mL of extraction buffer [10 mM Tris-HCl pH 7.4, 10% sucrose, 0.85 M NaCl, 1% protease inhibitor (Calbiochem 539131), 1 mM EGTA, 1% phosphatase inhibitor (Sigma P5726 and P0044)]. The solution was then transferred into polycarbonate centrifuge bottles (16×76 mm; Beckman 355603) and centrifuged at 15,000 g (14,800 RPM) in an ultracentrifuge (Beckman, XL100K) for 20 min at 4° C. using the 70.1 Ti rotor. […]

[5] = test system: amyloid-beta; assay: Autoradiography on human brain sections with an 18F amyloid binding compound (selectivity); details: FIG. 13
Experimental: as §1, with “12. […] Additionally, selectivity was determined by using a tracer binding to amyloid-beta.” for “12.”

[6] = test system: tau tangles on AD brain section; assay: Assay 1: displacement of RefA on human AD brain sections (fluorescence); format: binding; details: for Selectivity (tau/Abeta): ratio of competition on tau tangles to competition on Aβ plaques
Summary of the method: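 Braak V-VI AD amygdala frozen sections were preincubated with test compound at 250 μM in 50% ethanol for 20 min at room temperature. Fluorescent RefA at 1 μM in 50% ethanol was then added for 20 min, imaged at 470 nm excitation, and tangles were quantified.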

[7] = PHF batch 7 (parietal cortex, one AD patient), read-out: [Kd] on PHF batch 7
[8] = PHF batch 6 (pooled frontal cortex, 25 AD patients), read-out: [Kd] on PHF batch 6

Structure (SMILES): Cn1c2ccncc2c2ccc(N3CCC(OCC[18F])CC3)nc21 [^18F-156]
competition with amyloid binding compound [1]: no competition
competition with corresponding cold compound [1]: Competition observed

Structure (SMILES): Cn1c2ccncc2c2ccc(N3CC4(CC(F)C4)C3)nc21 [Example 146]
Direct staining of tau tangles on AD brain sections at 100 μM [2]: ++ (tangles)
Competition on AD brain section Aβ plaques (1 μM Compound B vs 250 μM compound) [3]: 0%
Kd [4, 7]: 40 ± 10 nM

Structure (SMILES): Cn1c2ccncc2c2ccc(N3CCC([18F])CC3)nc21 [^18F-161]
competition with amyloid binding compound [1]: no competition
competition with corresponding cold compound [1]: Competition observed

Structure (SMILES): Cn1c2ccncc2c2ccc(N3CCN(CC[18F])CC3)nc21 [^18F-168]
competition with amyloid binding compound [1]: no competition
competition with corresponding cold compound [1]: Competition observed

Structure (SMILES): Cn1c2ccncc2c2ccc(N3CCC(F)CC3)nc21 [Example 161]
Direct staining of tau tangles on AD brain sections at 100 μM [2]: + (tangles)
Competition on AD brain section tau tangles (1 μM RefA vs. 250 μM compound) [6]: 85%
Selectivity (tau/Abeta) [6]: ~6-fold
Competition on AD brain section Aβ plaques (1 μM Compound B vs 250 μM compound) [3]: 14%
Kd [4, 8]: 18 ± 3 nM

Structure (SMILES): Cn1c2ccncc2c2ccc(N3[C@@H]4CC[C@H]3C[C@H](F)C4)nc21 [Example 147]
Direct staining of tau tangles on AD brain sections at 100 μM [2]: ++ (tangles)
Kd [4, 7]: 170 ± 40 nM

Structure (SMILES): Cn1c2ccncc2c2ccc(N3CC4(CC(OCCF)C4)C3)nc21 [Example 154]
Direct staining of tau tangles on AD brain sections at 100 μM [2]: ++ (tangles)
Kd [4, 7]: 270 ± 50 nM

Structure (SMILES): Cn1c2ccncc2c2ccc(N3CCC(OCCF)CC3)nc21 [Example 156]
Direct staining of tau tangles on AD brain sections at 100 μM [2]: + (tangles)
Competition on AD brain section tau tangles (1 μM RefA vs. 250 μM compound) [6]: 72%
Selectivity (tau/Abeta) [6]: >72 fold
Competition on AD brain section Aβ plaques (1 μM Compound B vs 250 μM compound) [3]: −8%
Kd [4, 8]: 26 ± 7 nM

Structure (SMILES): Cn1c2ccncc2c2ccc(N3CCN(CCF)CC3)nc21 [168 Step B]
Direct staining of tau tangles on AD brain sections at 100 μM [2]: ++ (tangles)
Competition on AD brain section Aβ plaques (1 μM Compound B vs 250 μM compound) [3]: −1%
Kd [4, 7]: 160 ± 30 nM

Structure (SMILES): Cn1c2ccncc2c2ccc(N3CCC(OCCOCC[18F])CC3)nc21 [^18F-152]
competition with amyloid binding compound [1]: no competition
competition with corresponding cold compound [1]: Competition observed

Structure (SMILES): Cn1c2cc[nH]c(=O)c2c2ccc(Nc3cccc(OCCF)c3)nc21 [Example 197]
Direct staining of tau tangles on AD brain sections at 100 μM [2]: + (tangles)
Kd [4, 8]: 100 ± 15 nM

Structure (SMILES): Cn1c2c(c3ccc(Nc4ccc(F)c(OCCF)c4)nc31)C(=O)NCC2 [Example 201]
Direct staining of tau tangles/Aβ plaques on AD brain sections at 100 μM ([2]; human AD brain sections, fluorescence, cell does not say tangles or plaques): −
Kd [4, 8]: 75 ± 12 nM

Continued, in another order:

competition with amyloid binding compound [1]: no competition
Structure (SMILES): Cn1c2ccncc2c2ccc(N3CC[C@H]([18F])C3)nc21 [^18F-160]
competition with corresponding cold compound [1]: Competition observed

competition with ^18F amyloid binding compound [5]: no competition
Structure (SMILES): Cn1c2ccncc2c2ccc(Nc3cccc(OCC[18F])c3)nc21 [^18F-44]

Kd [4, 7]: 400 ± 60 nM
Structure (SMILES): Cn1c2ccncc2c2ccc(Nc3cccc(F)n3)nc21 [Example 28]
Direct staining of tau tangles on AD brain sections at 100 μM [2]: + (tangles)

competition with ^18F amyloid binding compound [5]: no competition
Structure (SMILES): Cn1c2ccncc2c2ccc(Nc3cncc(OCC[18F])c3)nc21 [^18F-59]

Kd [4, 7]: 260 ± 50 nM
Structure (SMILES): Cn1c2ccncc2c2ccc(Nc3cc(F)ccn3)nc21 [Example 51]
Direct staining of tau tangles on AD brain sections at 100 μM [2]: +++ (tangles)

Kd [4, 7]: 120 ± 20 nM
Structure (SMILES): Cn1c2ccncc2c2ccc(N3CCC[C@@H](F)C3)nc21 [Example 159]
Direct staining of tau tangles on AD brain sections at 100 μM [2]: + (tangles)

Reference: patent US10662193B2, “Carbazole and carboline compounds for use in the diagnosis, treatment, alleviation or prevention of disorders associated with amyloid or amyloid-like proteins” (AC IMMUNE SA, priority 2014, dated 2020)
